# In patent US10525063B2, “Methods of reducing mammographic breast density and/or breast cancer risk” (HAVAH THERAPEUTICS PTY LTD., priority 2014, dated 2020):
# Read-outs that look alike come from different tables or passages of the source.
# Tests used:
# [1] = Serum anastrozole by liquid chromatography-tandem mass spectrometry; format: in vivo, human; details: for concentration at 3 month / concentration at 1 month: human, serum
# Experimental: FAI is calculated from a formula where the serum measurement of total testosterone and sex hormone binding globulin are calculated by radio immunoassay. Aromatase inhibitor serum level is determined by liquid chromatography-tandem mass spectrometry.
# All thirty having serum drawn at baseline and at 1 year for serum testosterone and sex hormone binding globulin so that free-androgen index could be calculated (FAI=the ratio of the total testosterone level divided by the sex hormone binding globulin level, and then multiplied by a 100 to give a percentage).
# [2] = tested on: mammographic breast density; details: background statement; cited from earlier work
# [3] = cited from earlier work
smiles,measurement,setting,value
"CC(C)(C#N)c1cc(Cn2cncn2)cc(C(C)(C)C#N)c1 [anastrozole, 2,2′-[5-(1H-1,2,4-triazol-1-ylmethyl)-1,3-phenylene]bis(2-methylpropanenitrile)]","Serum anastrazole (ng/ml) End 1st year 3 month trough, median (range)","[1]; Example 2, 30 patients, s.c. testosterone and anastrozole at 4 months intervals",32 (22-39) ng/ml
same,concentration at 3 month,"[1]; female, sc, Example 2, 30 patients, s.c. testosterone and anastrozole at 4 months intervals, read-out: Serum anastrazole (ng/ml) 1st 3 month trough, median (range)",27 ng/mL
same,concentration at 1 month,"[1]; sc, Serum anastrozole, Example 1, Pellet 1 (testosterone 59 mg, anastrozole 2.75 mg, s.c.)",38 ng/mL
same,concentration at 3 month,"[1]; sc, Serum anastrozole, Example 1, Pellet 1 (testosterone 59 mg, anastrozole 2.75 mg, s.c.), 3 month",28 ng/mL
same,concentration at 1 month,"[1]; subcutaneous, Serum anastrozole, Example 1, Pellet 2 (testosterone 71 mg, anastrozole 2.75 mg)",35 ng/mL
same,concentration at 3 month,"[1]; subcutaneous, Serum anastrozole, Example 1, Pellet 2 (testosterone 71 mg, anastrozole 2.75 mg), 3 month",25 ng/mL
same,concentration at 1 month,"[1]; subcutaneous, Serum anastrozole, Example 1, Pellet 3 (testosterone 71 mg, anastrozole 2.75 mg)",38 ng/mL
same,concentration at 3 month,"[1]; subcutaneous, Serum anastrozole, Example 1, Pellet 3 (testosterone 71 mg, anastrozole 2.75 mg), 3 month",28 ng/mL
CC/C(=C(\c1ccccc1)c1ccc(OCCN(C)C)cc1)c1ccccc1 [tamoxifen],Effect on mammographic breast density,[2],has been shown to reduce mammographic breast density
CCCCCCCCCCC(=O)O[C@H]1CC[C@H]2[C@@H]3CCC4=CC(=O)CC[C@]4(C)[C@H]3CC[C@]12C [testosterone undecanoate],Oral bioavailability,[3]; by-passes the liver via the lymphatic system,orally bioavailable
C[C@]12CC[C@H]3[C@@H](CCC4=CC(=O)CC[C@@]43C)[C@@H]1CC[C@@H]2O [testosterone],Fraction broken down in the liver as it is absorbed from the gut,[3]; oral delivery,80-90%
same,Fraction broken down in the intestines by aromatase and other metabolic pathways,[3]; oral,approximately 85%
